# Measurements reported in patent US20090069244A1, “Mutants of lactoferrin” (AM-Pharma B.V., priority 2007, published 2009).
# System: Methicillin Resistant Staphylococcus aureus (MRSA), Escherichia coli and/or Candida albicans
# Assay: Minimal inhibitory concentration (MIC) assay, microdilution
# Format: cell-based
# Settings: MIC not more than 1 dilution from the reference peptide (Pep001 or MD012) counts as equal activity
# Source text: To compare antimicrobial activity of the mutants, the inventors made use of the minimal inhibitory concentration (MIC) assay, extensively described in the literature and which has become a world wide standardized test for, e.g., determining susceptibility of strains towards antibiotics (reference “National Committee for Clinical Laboratory Standards: Performance standards for antimicrobial susceptibility testing; fourteenth informational supplement. M100-S14, Volume 24, Wayne, Pa.; 2004.”). The MIC assay is a fast, reliable assay that is used throughout the world in medical microbiology divisions to test e.g., antibiotic response of clinical isolates to monitor antibiotic therapy. MIC values represent the lowest concentration of antibiotic or antifungal that inhibits >90% of growth of the micro-organism. In hospitals MIC values are also used to determine strength of antibiotic therapy where one of the pharmacokinetic parameters is expressed as “hours over MIC”. The inventors therefore feel that MIC values, in contrast to e.g., killing assays, more closely relate to clinical efficacy of the drug and predict more correctly the success of a drug in the clinic.
# Antimicrobial properties of the different peptides against a gram negative bacteria (Escherichia coli ATCC 035), a gram positive bacteria (Methicillin Resistant Staphylococcus aureus (MRSA) ATCC 2141) both obtained from the American Type Culture Collection (ATCC, Manassas (VA), USA) and Yeast (Candia Albicans Y01-19; clinical isolate of LUMC, Leiden, the Netherlands) were used for the MIC determination.
# Minimal inhibitory concentrations (MICs) were determined by microdilution method according to CLSI guidelines using RPMI1640 medium diluted 1:4 in […] sterile filtered MilliQ and an bacterial inoculum of 5×10^5 CFU/ml. Plates were read after 20-24 h incubation at 35° C. in ambient air. MICs were recorded as the lowest concentration that inhibited visible growth.
# Both tables show the MIC values of the various peptides for Methicillin Resistant Staphylococcus aureus (MRSA), Escherichia coli and/or Candida albicans. […]
row,Substance,antimicrobial activity (MIC) compared with the reference peptide
1,RRRRQWC [RRRRQWC (SEQ ID NO:141)],acceptable antimicrobial activity
2,RRRRSVC [RRRRSVC (SEQ ID NO:143)],acceptable antimicrobial activity
3,RRRRSWC [RRRRSWC (SEQ ID NO:142)],acceptable antimicrobial activity
